Molecular target: recombinant human His-ATG7 enzyme (Homo sapiens (Human), UniProt O95352)
Assay: ATG7 Enzyme Assay (HTRF/FRET, ATG3-GST and Flag-Gabarap)
Assay type: biochemical
Conditions: for inhibition at 0.123 µM / inhibition at 0.111 µM / inhibition at 0.069 µM: read-out: Percent Inhibition; for inhibition at 0.069 µM: Concentration 0.069 μM
Procedure: Example 97: ATG7 Enzyme Assay
The total volume of the ATG7 enzymatic assay is 50 μL and contains 50 mM HEPES Hemisodium (pH 7.5), 0.05% BSA, 0.01% Tween-20, 25 mM NaCl, 5 mM MgCl2, 10 μM ATP, 250 μM GSH, 5 nM ATG3-GST, 5 nM Flag-Gabarap, 100 μM TCEP and 0.15 nM recombinant human His-ATG7 enzyme. The enzymatic reaction mixture, with and without inhibitor, was incubated at 24° C. for 105 min in a 384-well plate before termination with […] of Stop/Detection buffer (0.1M HEPES Hemisodium pH 7.5, 0.05% Tween20, 20 mM EDTA, 410 mM KF, 0.53 nM Europium-Cryptate labeled monoclonal anti-Flag M2 Antibody (CisBio International) and 8.125 μg/ml PHYCOLINK goat anti-GST allophycocyanin (XL-APC) antibody (Prozyme)). After incubation for 2 hours at 24° C., quantification of FRET is performed on the Pherostar™ (BMG Labtech). Percentage inhibition values at a single concentration or enzyme inhibition (IC50) values are determined from those curves. One skilled in the art will appreciate that the values generated either as percentage inhibition at a single concentration or IC50 values are subject to experimental variation.

Chain of recombinant human His-ATG7 enzyme (O95352 whole entry): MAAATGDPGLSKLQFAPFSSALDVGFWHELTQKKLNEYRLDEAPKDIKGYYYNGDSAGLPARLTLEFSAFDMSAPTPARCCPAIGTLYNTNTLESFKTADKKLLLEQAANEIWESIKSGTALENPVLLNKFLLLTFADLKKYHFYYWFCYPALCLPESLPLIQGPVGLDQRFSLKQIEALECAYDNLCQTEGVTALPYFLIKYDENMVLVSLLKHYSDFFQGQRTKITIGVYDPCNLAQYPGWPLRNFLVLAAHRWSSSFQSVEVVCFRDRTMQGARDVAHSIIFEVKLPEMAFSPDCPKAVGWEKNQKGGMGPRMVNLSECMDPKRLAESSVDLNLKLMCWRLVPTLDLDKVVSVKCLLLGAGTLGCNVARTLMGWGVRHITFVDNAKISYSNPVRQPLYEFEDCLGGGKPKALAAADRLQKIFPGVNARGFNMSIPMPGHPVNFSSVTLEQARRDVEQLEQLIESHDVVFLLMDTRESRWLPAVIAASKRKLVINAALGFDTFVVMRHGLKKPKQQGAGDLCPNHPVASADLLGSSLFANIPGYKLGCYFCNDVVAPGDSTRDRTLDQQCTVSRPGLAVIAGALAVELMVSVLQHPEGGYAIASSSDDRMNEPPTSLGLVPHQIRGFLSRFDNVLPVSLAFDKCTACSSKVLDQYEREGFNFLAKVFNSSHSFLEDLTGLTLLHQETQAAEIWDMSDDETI

**Q.** `CC(O)CSc1nn([C@@H]2O[C@H](COS(N)(=O)=O)[C@@H](O)[C@H]2O)c2ncnc(N)c12` (single isomer, unassigned) [Compound I-55a, [(2R,3S,4R,5R)-5-(4-amino-3-{[(2R)-2-hydroxypropyl]sulfanyl}-1H-pyrazolo[3,4-d]pyrimidin-1-yl)-3,4-dihydroxytetrahydrofuran-2-yl]methyl sulfamate or [(2R,3S,4R,5R)-5-(4-amino-3-{[(2S)-2-hydroxypropyl]sulfanyl}-1H-pyrazolo[3,4-d]pyrimidin-1-yl)-3,4-dihydroxytetrahydrofuran-2-yl]methyl Sulfamate] was tested. Which IC50 did it give?
**A.** Its IC50 is 50 to 100 nM.

**Q.** And the “Percent Inhibition” value (Concentration 0.123 μM)?
**A.** The value was 71%.

**Q.** What does the source list for `CC(O)CSc1nn([C@@H]2O[C@H](COS(N)(=O)=O)[C@@H](O)[C@H]2O)c2ncnc(N)c12` (single isomer, unassigned) [Compound I-55b, [(2R,3S,4R,5R)-5-(4-amino-3-{[(2R)-2-hydroxypropyl]sulfanyl}-1H-pyrazolo[3,4-d]pyrimidin-1-yl)-3,4-dihydroxytetrahydrofuran-2-yl]methyl sulfamate or [(2R,3S,4R,5R)-5-(4-amino-3-{[(2S)-2-hydroxypropyl]sulfanyl}-1H-pyrazolo[3,4-d]pyrimidin-1-yl)-3,4-dihydroxytetrahydrofuran-2-yl]methyl Sulfamate]?
**A.** IC50: 50 to 100 nM; inhibition at 0.123 µM (Concentration 0.123 μM): 68%

**Q.** What does the source list for `CCC(C)Sc1nn([C@@H]2O[C@H](COS(N)(=O)=O)[C@@H](O)[C@@H]2F)c2ncnc(N)c12` (single isomer, unassigned) [Compound I-136a]?
**A.** IC50: 50 to 100 nM; Percent Inhibition (Concentration 0.111 μM): 63%

**Q.** What does the source list for `CCC(C)Sc1nn([C@@H]2O[C@H](COS(N)(=O)=O)[C@@H](O)[C@@H]2F)c2ncnc(N)c12` (single isomer, unassigned) [Compound I-136b]?
**A.** IC50: 50 to 100 nM; inhibition at 0.111 µM (Concentration 0.111 μM): 61%

**Q.** `COC(=O)c1nn([C@@H]2O[C@H](COS(N)(=O)=O)C(O)C2O)c2ncnc(N)c12` (stereo in doubt) [Compound I-20, methyl 4-amino-1-{(2R,3S,4R,5R)-3,4-dihydroxy-5-[(sulfamoyloxy)methyl]tetrahydrofuran-2-yl}-1H-pyrazolo[3,4-d]pyrimidine-3-carboxylate] was tested. Which IC50 did it give?
**A.** The IC50 was 100 to 500 nM.

**Q.** And the inhibition at 0.123 µM (Concentration 0.123 μM)?
**A.** Its inhibition at 0.123 µM is 45%.

**Q.** Which IC50 does the source give for `Cc1ccc(Sc2nn([C@H]3C[C@H](O)C(COS(N)(=O)=O)O3)c3ncnc(N)c23)c(F)c1` (stereo in doubt) [Compound I-211, [(2S,3S,5R)-5-{4-amino-3-[(2-fluoro-4-methylphenyl)sulfanyl]-1H-pyrazolo[3,4-d]pyrimidin-1-yl}-3-hydroxytetrahydrofuran-2-yl]methyl Sulfamate] here?
**A.** Its IC50 is 50 to 100 nM.

**Q.** And the “Percent Inhibition” value (Concentration 0.111 μM)?
**A.** The value was 64%.

**Q.** Which results are given for `Nc1ncnc2c1cnn2[C@H]1C[C@H](O)C(COS(N)(=O)=O)O1` (stereo in doubt) [Compound I-226, [(2S,3S,5R)-5-(4-amino-1H-pyrazolo[3,4-d]pyrimidin-1-yl)-3-hydroxytetrahydrofuran-2-yl]methyl sulfamate]?
**A.** IC50: > 500 nM; inhibition at 0.111 µM (Concentration 0.111 μM): 5%

**Q.** With `COc1nn([C@@H]2O[C@H](COS(N)(=O)=O)[C@@H](O)[C@H]2O)c2ncnc(N)c12` [Compound I-1, [(2R,3S,4R,5R)-5-(4-amino-3-methoxy-1H-pyrazolo[3,4-d]pyrimidin-1-yl)-3,4-dihydroxytetrahydrofuran-2-yl]methyl sulfamate] as the molecule, how does the IC50 read?
**A.** Its IC50 is 50 to 100 nM.

**Q.** What about the inhibition at 0.123 µM (Concentration 0.123 μM) of the same molecule?
**A.** Its inhibition at 0.123 µM is 51%.

**Q.** Which IC50 does the source give for `Cc1nn([C@@H]2O[C@H](COS(N)(=O)=O)[C@@H](O)[C@H]2O)c2ncnc(N)c12` [Compound I-2, [(2R,3S,4R,5R)-5-(4-amino-3-methyl-1H-pyrazolo[3,4-d]pyrimidin-1-yl)-3,4-dihydroxytetrahydrofuran-2-yl]methyl Sulfamate] here?
**A.** The IC50 was 100 to 500 nM.

**Q.** What about the inhibition at 0.123 µM (Concentration 0.123 μM) of the same molecule?
**A.** The inhibition at 0.123 µM was 42%.

**Q.** Which results are given for `CC(C)c1nn([C@@H]2O[C@H](COS(N)(=O)=O)[C@@H](O)[C@H]2O)c2ncnc(N)c12` [Compound I-3, [(2R,3S,4R,5R)-5-(4-amino-3-isopropyl-1H-pyrazolo[3,4-d]pyrimidin-1-yl)-3,4-dihydroxytetrahydrofuran-2-yl]methyl Sulfamate]?
**A.** IC50: 100 to 500 nM; inhibition at 0.069 µM: 24%

**Q.** `Nc1ncnc2c1c(COCc1ccccc1)nn2[C@@H]1O[C@H](COS(N)(=O)=O)[C@@H](O)[C@H]1O` [Compound I-4, [(2R,3S,4R,5R)-5-{4-amino-3-[(benzyloxy)methyl]-1H-pyrazolo[3,4-d]pyrimidin-1-yl}-3,4-dihydroxytetrahydrofuran-2-yl]methyl Sulfamate] was tested. Which IC50 did it give?
**A.** Its IC50 is 100 to 500 nM.

**Q.** And the inhibition at 0.069 µM?
**A.** The inhibition at 0.069 µM was 32%.

**Q.** `CCOc1nn([C@@H]2O[C@H](COS(N)(=O)=O)[C@@H](O)[C@H]2O)c2ncnc(N)c12` [Compound I-5, [(2R,3S,4R,5R)-5-(4-amino-3-ethoxy-1H-pyrazolo[3,4-d]pyrimidin-1-yl)-3,4-dihydroxytetrahydrofuran-2-yl]methyl Sulfamate] was tested. Which IC50 did it give?
**A.** The IC50 was 100 to 500 nM.

**Q.** What about the inhibition at 0.069 µM of the same molecule?
**A.** Its inhibition at 0.069 µM is 23%.

**Q.** Which results are given for `CCc1nn([C@@H]2O[C@H](COS(N)(=O)=O)[C@@H](O)[C@H]2O)c2ncnc(N)c12` [Compound I-6, [(2R,3S,4R,5R)-5-(4-amino-3-ethyl-1H-pyrazolo[3,4-d]pyrimidin-1-yl)-3,4-dihydroxytetrahydrofuran-2-yl]methyl Sulfamate]?
**A.** IC50: 100 to 500 nM; inhibition at 0.069 µM: 31%

**Q.** Which IC50 does the source give for `CC(C)Oc1nn([C@@H]2O[C@H](COS(N)(=O)=O)[C@@H](O)[C@H]2O)c2ncnc(N)c12` [Compound I-7, [(2R,3S,4R,5R)-5-(4-amino-3-isopropoxy-1H-pyrazolo[3,4-d]pyrimidin-1-yl)-3,4-dihydroxytetrahydrofuran-2-yl]methyl sulfamate] here?
**A.** Its IC50 is over 500 nM.

**Q.** What about the inhibition at 0.069 µM of the same molecule?
**A.** Its inhibition at 0.069 µM is 7%.

**Q.** Which results are given for `Nc1ncnc2c1c(CO)nn2[C@@H]1O[C@H](COS(N)(=O)=O)[C@@H](O)[C@H]1O` [Compound I-8, {(2R,3S,4R,5R)-5-[4-amino-3-(hydroxymethyl)-1H-pyrazolo[3,4-d]pyrimidin-1-yl]-3,4-dihydroxytetrahydrofuran-2-yl}methyl Sulfamate]?
**A.** IC50: 100 to 500 nM; inhibition at 0.069 µM: 32%

**Q.** What does the source list for `C#Cc1nn([C@@H]2O[C@H](COS(N)(=O)=O)[C@@H](O)[C@H]2O)c2ncnc(N)c12` [Compound I-9, [(2R,3S,4R,5R)-5-(4-amino-3-ethynyl-1H-pyrazolo[3,4-d]pyrimidin-1-yl)-3,4-dihydroxytetrahydrofuran-2-yl]methyl Sulfamate]?
**A.** IC50: 50 to 100 nM; inhibition at 0.069 µM: 52%

**Q.** Which IC50 does the source give for `Nc1ncnc2c1c(C(F)(F)F)nn2[C@@H]1O[C@H](COS(N)(=O)=O)[C@@H](O)[C@H]1O` [Compound I-10, {(2R,3S,4R,5R)-5-[4-amino-3-(trifluoromethyl)-1H-pyrazolo[3,4-d]pyrimidin-1-yl]-3,4-dihydroxytetrahydrofuran-2-yl}methyl Sulfamate] here?
**A.** The IC50 was 50 to 100 nM.

**Q.** What about the inhibition at 0.069 µM of the same molecule?
**A.** Its inhibition at 0.069 µM is 48%.

**Q.** For `COCC#Cc1nn([C@@H]2O[C@H](COS(N)(=O)=O)[C@@H](O)[C@H]2O)c2ncnc(N)c12` [Compound I-11, {(2R,3S,4R,5R)-5-[4-amino-3-(3-methoxyprop-1-yn-1-yl)-1H-pyrazolo[3,4-d]pyrimidin-1-yl]-3,4-dihydroxytetrahydrofuran-2-yl}methyl Sulfamate], which IC50 is on record?
**A.** Its IC50 is over 500 nM.

**Q.** And the inhibition at 0.069 µM?
**A.** The inhibition at 0.069 µM was 9%.

**Q.** For `Nc1ncnc2c1c(CCc1ccccc1)nn2[C@@H]1O[C@H](COS(N)(=O)=O)[C@@H](O)[C@H]1O` [Compound I-12, {(2R,3S,4R,5R)-5-[4-amino-3-(2-phenylethyl)-1H-pyrazolo[3,4-d]pyrimidin-1-yl]-3,4-dihydroxytetrahydrofuran-2-yl}methyl Sulfamate], which IC50 is on record?
**A.** The IC50 was 100 to 500 nM.

**Q.** What about the inhibition at 0.123 µM (Concentration 0.123 μM) of the same molecule?
**A.** Its inhibition at 0.123 µM is 20%.

**Q.** How did the IC50 turn out when `N#Cc1nn([C@@H]2O[C@H](COS(N)(=O)=O)[C@@H](O)[C@H]2O)c2ncnc(N)c12` [Compound I-13, [(2R,3S,4R,5R)-5-(4-amino-3-cyano-1H-pyrazolo[3,4-d]pyrimidin-1-yl)-3,4-dihydroxytetrahydrofuran-2-yl]methyl Sulfamate] was run?
**A.** The IC50 was 20 to 50 nM.

**Q.** And the inhibition at 0.123 µM (Concentration 0.123 μM)?
**A.** Its inhibition at 0.123 µM is 80%.

**Q.** With `CC#Cc1nn([C@@H]2O[C@H](COS(N)(=O)=O)[C@@H](O)[C@H]2O)c2ncnc(N)c12` [Compound I-14, {(2R,3S,4R,5R)-5-[4-amino-3-(prop-1-yn-1-yl)-1H-pyrazolo[3,4-d]pyrimidin-1-yl]-3,4-dihydroxytetrahydrofuran-2-yl}methyl Sulfamate] as the molecule, how does the IC50 read?
**A.** The IC50 was 100 to 500 nM.

**Q.** And the inhibition at 0.069 µM?
**A.** Its inhibition at 0.069 µM is 17%.

**Q.** With `NCc1nn([C@@H]2O[C@H](COS(N)(=O)=O)[C@@H](O)[C@H]2O)c2ncnc(N)c12` [Compound I-15, {(2R,3S,4R,5R)-5-[4-amino-3-(aminomethyl)-1H-pyrazolo[3,4-d]pyrimidin-1-yl]-3,4-dihydroxytetrahydrofuran-2-yl}methyl Sulfamate] as the molecule, how does the IC50 read?
**A.** The IC50 was over 500 nM.

**Q.** What about the inhibition at 0.069 µM of the same molecule?
**A.** The inhibition at 0.069 µM was 16%.

**Q.** Which results are given for `NC(=O)c1nn([C@@H]2O[C@H](COS(N)(=O)=O)[C@@H](O)[C@H]2O)c2ncnc(N)c12` [Compound I-16, [(2R,3S,4R,5R)-5-(4-amino-3-carbamoyl-1H-pyrazolo[3,4-d]pyrimidin-1-yl)-3,4-dihydroxytetrahydrofuran-2-yl]methyl Sulfamate]?
**A.** IC50: 100 to 500 nM; inhibition at 0.069 µM: 22%

**Q.** For `NCC#Cc1nn([C@@H]2O[C@H](COS(N)(=O)=O)[C@@H](O)[C@H]2O)c2ncnc(N)c12` [Compound I-17, {(2R,3S,4R,5R)-5-[4-amino-3-(3-aminoprop-1-yn-1-yl)-1H-pyrazolo[3,4-d]pyrimidin-1-yl]-3,4-dihydroxytetrahydrofuran-2-yl}methyl Sulfamate], which IC50 is on record?
**A.** The IC50 was over 500 nM.

**Q.** And the inhibition at 0.069 µM?
**A.** Its inhibition at 0.069 µM is 10%.

— patent US10865208B2, “ATG7 inhibitors and the uses thereof” (Millennium Pharmaceuticals, Inc., priority 2016, dated 2020)
